Assay results from publication PMC9583322, “Vicinal Diaryl-Substituted Isoxazole and Pyrazole Derivatives with In Vitro Growth Inhibitory and In Vivo Antitumor Activity” (ACS Omega, 2022).

Assays:
[1] = test system: Huh7; assay: SRB cytotoxicity assay; format: cell-based, human; settings: 72 h treatment
Method in brief: (§1)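 Cells seeded 24 h before 72 h compound exposure, 40 to 2.5 μM (or 2.5 to 0.15 μM for compounds below 2.5 μM). TCA-fixed, stained with sulforhodamine B, absorbance at 515 nm. IC50 relative to DMSO control; fits with R^2 above 0.9 accepted.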

[2] = test system: MCF7; assay: SRB cytotoxicity assay; format: cell-based, human; settings: 72 h treatment
Method in brief: as §1

[3] = test system: Mahlavu; assay: SRB cytotoxicity assay; format: cell-based, human; settings: Homo sapiens, Mahlavu, 72 h, 72 h treatment
Method in brief: as §1

[4] = test system: MCF10A; assay: SRB cytotoxicity assay, immortalized normal breast epithelial cells; format: cell-based; settings: Homo sapiens, MCF-10A, 72 h treatment, non-tumorigenic immortalized breast epithelial cells
Description: HepG2, FOCUS, Hep3B, Mahlavu, Huh7, Hep40, and PLC-PRF-5 hepatocellular carcinoma cells; MCF-7, MDA-MB-231, MDA-MB-468, SKBR3, and ZR-75 breast cancer cells; and normal-like epithelial MCF-10A breast cells were cultured in low-glucose Dulbecco’s modified Eagle’s medium (DMEM) (Biological Industries-BI) supplemented with 10% fetal bovine serum (FBS) (Gibco/Thermo Fisher Scientific), 2 mM L-Glutamine (Gibco/Thermo Fisher Scientific), 100 Units/mL Penicillin/Streptomycin, and 0.1 mM non-essential amino acid (Gibco/Thermo Fisher Scientific). […]
Mahlavu, FOCUS, SNU475 (1000 cell/well in 150 μL/well); Huh7, MCF7 (2500 cell/well in 150 μL/well); HepG2, Hep3B, SKBR3 (3000 cell/well in 150 μL/well); PLC-PRF-5, Hep40 (5000 cell/well in 150 μL/well); MDA-MB-231, MDA-MB-468, MCF10A (6000 cell/well in 150 μL/well); and ZR-75 (7500 cell/well in 150 μL/well) were cultured in 96-well plates and were inoculated in an incubator for 24 hours. […] The protein-bound SRB was solubilized with 10 mM Tris-base (Sigma) and their absorbance was measured with a 96-well plate reader at 515 nm wavelength (ELx800, Biotek). The IC50 values of compounds were calculated in comparison with control group DMSO. […]

[5] = test system: hepatocellular carcinoma and breast cancer cell lines; assay: SRB cytotoxicity, cell line panel; format: cell-based; settings: Homo sapiens, range over hepatocellular carcinoma and breast cancer cell lines
Description: Mahlavu, FOCUS, SNU475 (1000 cell/well in 150 μL/well); Huh7, MCF7 (2500 cell/well in 150 μL/well); HepG2, Hep3B, SKBR3 (3000 cell/well in 150 μL/well); PLC-PRF-5, Hep40 (5000 cell/well in 150 μL/well); MDA-MB-231, MDA-MB-468, MCF10A (6000 cell/well in 150 μL/well); and ZR-75 (7500 cell/well in 150 μL/well) were cultured in 96-well plates and were inoculated in an incubator for 24 hours. The compounds were dissolved in dimethyl sulfoxide (DMSO) (Sigma, St Louis, MO) as a 20 mM stock solution. The treatment of cells with the compounds was done in a concentration range starting from 40 to 2.5 μM. The compounds which were below 2.5 μM were tested in a concentration range from 2.5 to 0.15 μM. End of the 72h compound treatment, the cells were fixed using 10% (v/v) trichloroacetic acid (MERCK) for an hour and washed with ddH2O, and left for air-drying. The fixed plates were stained with 50 μL of sulforhodamine B (SRB) solution (Sigma) at RT for 10 min. To remove unbound SRB dye, acetic acid was used to wash cells three times and left for drying. The protein-bound SRB was solubilized with 10 mM Tris-base (Sigma) and their absorbance was measured with a 96-well plate reader at 515 nm wavelength (ELx800, Biotek). The IC50 values of compounds were calculated in comparison with control group DMSO. Data with R^2 values larger than 0.9 are considered significant.

[6] = test system: MDA-MB-231 xenografts; assay: MDA-MB-231 breast cancer xenograft; format: in vivo, mouse; settings: nude mice, 40 mg/kg oral, twice a week, 4 weeks
Description: Mahlavu cells (10 × 10^6 cells/mouse) prepared in 150 μL of DMEM were injected subcutaneously to the flank of 6–8 weeks old male athymic nude mice, while MDA-MB-231 cells (2 × 10^6cells/mouse) in 1:1 DMEM and matrigel were injected into mammary fat pad (MFP) of 6–8 weeks old female athymic nude mice. Tumor volume and mouse weight were measured twice a week using calipers. When the tumor volume reached ∼150 mm^3, xenografts were randomized into groups (6 mice per group), and the mice were administered subsequently with 11 or 85 (40 mg/kg in 0.5% hydroxypropyl methylcellulose plus 1% Tween 80) or vehicle by gavage feeding (3–4 days/week) for 4 weeks. The mice were sacrificed 30 days after initiation of the compound treatment and tumors were collected. Two-way ANOVA was performed for statistical significance by GraphPad Prism. All of the mice were maintained under a temperature-controlled environment with a 12 h light/dark cycle and received a standard diet and water ad libitum.

[7] = test system: 22 cancer cells of the NCI 60 cell line panel; assay: NCI-60 single-dose screen, text summary; format: cell-based; settings: against 22 cancer cells, read-out: growth inhibition (GI) values in the range
Description: (§2) Moreover, in vitro single-dose anticancer screening of 11 and 85 at 10 μM was performed utilizing the stable panel of 60 cell lines comprising 9 different cancer types at the National Cancer Institute (NCI) under the Developmental Therapeutics Program (Table S1).[31]

[8] = test system: 786-0; assay: NCI-60 single-dose screen; format: cell-based; settings: Homo sapiens, 786-0, Renal Cancer, read-out: % Growth Inhibition (GI%)
Description: as §2

[9] = test system: A498; assay: NCI-60 single-dose screen; format: cell-based; settings: Homo sapiens, A498, Renal Cancer, read-out: % Growth Inhibition (GI%)
Description: as §2

[10] = test system: DU-145; assay: NCI-60 single-dose screen; format: cell-based; settings: Homo sapiens, DU-145, Prostate Cancer, read-out: % Growth Inhibition (GI%)
Description: as §2

[11] = test system: HS 578T; assay: NCI-60 single-dose screen; format: cell-based; settings: Homo sapiens, Breast Cancer, read-out: % Growth Inhibition (GI%)
Description: as §2

[12] = test system: K-562; assay: NCI-60 single-dose screen; format: cell-based; settings: Homo sapiens, K562, K-562, Leukemia, read-out: % Growth Inhibition (GI%)
Description: as §2

[13] = test system: NCI-H226; assay: NCI-60 single-dose screen; format: cell-based; settings: Homo sapiens, NCI-H226, Non-Small Cell Lung Cancer, read-out: % Growth Inhibition (GI%)
Description: as §2

[14] = test system: SF-268; assay: NCI-60 single-dose screen; format: cell-based; settings: Homo sapiens, SF-268, CNS Cancer, read-out: % Growth Inhibition (GI%)
Description: as §2

[15] = test system: UACC-257; assay: NCI-60 single-dose screen; format: cell-based; settings: Homo sapiens, UACC-257, Melanoma, read-out: % Growth Inhibition (GI%)
Description: as §2

[16] = test system: UO-31; assay: NCI-60 single-dose screen; format: cell-based; settings: Homo sapiens, UO-31, Renal Cancer, read-out: % Growth Inhibition (GI%)
Description: as §2

Work on `Cc1ccccc1COc1ccc(-c2noc(C)c2-c2ccc(Cl)cc2)cc1` [compound 11, 4-(4-Chlorophenyl)-5-methyl-3-(4-((2-methylbenzyl)oxy)phenyl)isoxazole] yielded an IC50 ([1]; Homo sapiens, Huh-7, 72 h) of 1.3 µM, an IC50 ([2]; Homo sapiens, MCF7, 72 h) of 3.8 µM and an IC50 [3] of 3.2 µM. The IC50 [4] was 12.1 µM, the IC50 [5] was 0.7 to 9.5 µM and the “decrease in tumor volumes as compared to the control group” value [6] was about 50%. The inhibition at 10 µM [7] was 45 to 100%, the inhibition at 10 µM [8] was 24.5% and the inhibition at 10 µM [9] was 61.4%. The inhibition at 10 µM [10] was 22.6%, the inhibition at 10 µM [11] was 40.6% and the inhibition at 10 µM [12] was 85.6%. For the same compound, the inhibition at 10 µM [13] was 42.8%, the inhibition at 10 µM [14] was 24.4% and the inhibition at 10 µM [15] was 29.1%. The inhibition at 10 µM [16] was 25.6%.
`Cc1ccccc1COc1ccc(-c2ccnn2-c2ccc(Cl)cc2)cc1` [compound 85, 1-(4-Chlorophenyl)-5-(4-((2-methylbenzyl)oxy)phenyl)-1H-pyrazole] showed an IC50 [1] of 0.7 µM, an IC50 ([1]; Homo sapiens, Huh-7, 72 h) of under 1 µM and an IC50 [2] of 0.9 µM. The IC50 ([2]; Homo sapiens, MCF7, 72 h) was under 1 µM, the IC50 [3] was 3.7 µM and the IC50 [4] was 7.6 µM. The IC50 [5] was 0.7 to 9.5 µM, the “decrease in tumor volumes as compared to the control group” value [6] was about 50% and the inhibition at 10 µM [7] was 45 to 100%. For the same compound, the inhibition at 10 µM [8] was 17.2%, the inhibition at 10 µM [9] was 42.5% and the inhibition at 10 µM [10] was 11.9%. The inhibition at 10 µM [11] was 39.1%, the inhibition at 10 µM [12] was 86.3% and the inhibition at 10 µM [13] was 29.7%. It also gave an inhibition at 10 µM [14] of 19.5%, an inhibition at 10 µM [15] of 24.3% and an inhibition at 10 µM [16] of 25.6%.
